# In patent US6642392B1 (priority 1997, dated 2003):
# Where two headings read alike, the source gives them in different places.
# What was measured:
# Format in all cases: in vivo
# Pyricularia oryzae = conditions: for Test C disease control rating: rice blast; for Test C disease control rating (100 = 100% disease control, 0 = no disease control): rice seedlings sprayed to run-off, inoculated the following day, rating relative to controls, unmarked compounds (standard test rate)
# Botrytis cinerea = test: Test E: gray mold, preventive spray on cucumber seedlings; conditions: for Test E disease control rating: gray mold on cucumber; for Test E disease control rating (100 = 100% disease control, 0 = no disease control): cucumber seedlings sprayed to run-off, inoculated the following day, rating relative to controls, unmarked compounds (standard test rate)
# Procedure, shortened: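 Compounds in 3% acetone were suspended with 250 ppm Trem 014 surfactant and sprayed to run-off on cucumber seedlings. B. cinerea spores were inoculated next day, then 48 h saturated humidity at 20° C and 5 days at 20° C. Disease control rated 0–100% versus controls.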
# Puccinia recondita = test: Test B: wheat leaf rust, preventive spray on wheat seedlings; conditions: for Test B disease control rating: wheat leaf rust; for Test B disease control rating (100 = 100% disease control, 0 = no disease control): wheat seedlings sprayed to run-off, inoculated the following day, rating relative to controls, unmarked compounds (standard test rate)
# Procedure, shortened: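 Wheat seedlings were sprayed to run-off with compound (3% acetone, 250 ppm Trem 014), then inoculated with P. recondita spores the next day. They were held 24 h saturated at 20 °C, then 6 days at 20 °C. Ratings are 0–100% disease control versus controls.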
# Phytophthora infestans = conditions: for Test D disease control rating: tomato late blight; for Test D disease control rating (100 = 100% disease control, 0 = no disease control): tomato seedlings sprayed to run-off, inoculated the following day, rating relative to controls, unmarked compounds (standard test rate)
# [1] = tested on: Eiysiphe graminis f. sp. tritici; test: Test A: wheat powdery mildew, preventive spray on wheat seedlings; conditions: for Test A disease control rating: wheat powdery mildew; for Test A disease control rating (100 = 100% disease control, 0 = no disease control): wheat seedlings sprayed to run-off, inoculated the following day, rating relative to controls, unmarked compounds (standard test rate)
# Procedure, shortened: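 Compounds (3% acetone, 250 ppm Trem 014) sprayed to run-off on wheat seedlings, inoculated next day with spore dust. Incubated 7 days at 20° C before disease rating, 0–100% control relative to untreated controls.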
# [2] = 100 = 100% disease control, 0 = no control, unmarked entries (standard test concentration)
# [3] = 100 = 100% disease control, 0 = no control relative to controls, unmarked entries (standard test concentration)
structure (smiles),measurement,setting,value
"C[C@H](COc1cccc(C(F)(F)F)c1)NC(=O)C(C#N)C(C)(C)C (single isomer, unassigned) [18b]",Test C disease control rating,Pyricularia oryzae; [2],94%
same,Test E disease control rating,Botrytis cinerea; [2],0%
same,Test B disease control rating,Puccinia recondita; [2],0%
same,Test D disease control rating,Phytophthora infestans; [2],0%
same,Test A disease control rating,[1]; [3],77%
"C[C@H](COc1ccc(F)cc1Br)NC(=O)C(C#N)C(C)(C)C (single isomer, unassigned) [165b]",Test C disease control rating,Pyricularia oryzae; [2],94%
same,Test E disease control rating,Botrytis cinerea; [2],95%
same,Test B disease control rating,Puccinia recondita; [2],0%
same,Test D disease control rating,Phytophthora infestans; [2],23%
same,Test A disease control rating,[1]; [3],95%
CCC1(C(=O)NC(C)COn2cc(Cl)cc2C#N)C(C)C1(Cl)Cl (mixture of isomers) [compound 138],Test C disease control rating,Pyricularia oryzae; [2],53%
same,Test E disease control rating,Botrytis cinerea; [2],0%
same,Test B disease control rating,Puccinia recondita; [2],0%
same,Test D disease control rating,Phytophthora infestans; [2],13%
same,Test A disease control rating,[1]; [3],0%
"C[C@H](COc1cc(Cl)c(Cl)cc1Cl)NC(=O)C(C#N)C(C)(C)C (single isomer, unassigned) [174b]",Test C disease control rating,Pyricularia oryzae; [2],52%
same,Test E disease control rating,Botrytis cinerea; [2],0%
same,Test B disease control rating,Puccinia recondita; [2],28%
same,Test D disease control rating,Phytophthora infestans; [2],91%
same,Test A disease control rating,[1]; [3],0%
CC(COc1ccccc1)NC(=O)C(C#N)C(C)(C)C (mixture of isomers) [1a],Test C disease control rating,Pyricularia oryzae; [2],53%
same,Test E disease control rating,Botrytis cinerea; [2],0%
same,Test B disease control rating,Puccinia recondita; [2],0%
same,Test D disease control rating,Phytophthora infestans; [2],0%
same,Test A disease control rating,[1]; [3],60%
CC(C=Cc1ccc(F)cc1F)NC(=O)C(C#N)C(C)(C)C (mixture of isomers) [compound 309],"Test C disease control rating (100 = 100% disease control, 0 = no disease control)",Pyricularia oryzae,91%
same,"Test E disease control rating (100 = 100% disease control, 0 = no disease control)",Botrytis cinerea,0%
same,"Test B disease control rating (100 = 100% disease control, 0 = no disease control)",Puccinia recondita,0%
same,"Test D disease control rating (100 = 100% disease control, 0 = no disease control)",Phytophthora infestans,23%
same,"Test A disease control rating (100 = 100% disease control, 0 = no disease control)",[1],86%
CCC1(C(=O)NC(C)COc2cc(F)c(F)cc2C#N)C(C)C1(Cl)Cl (mixture of isomers) [compound 257],"Test C disease control rating (100 = 100% disease control, 0 = no disease control)",Pyricularia oryzae,0%
same,"Test E disease control rating (100 = 100% disease control, 0 = no disease control)",Botrytis cinerea,0%
same,"Test B disease control rating (100 = 100% disease control, 0 = no disease control)",Puccinia recondita,0%
same,"Test D disease control rating (100 = 100% disease control, 0 = no disease control)",Phytophthora infestans,0%
same,"Test A disease control rating (100 = 100% disease control, 0 = no disease control)",[1],0%
"C[C@H](COc1cc(F)ccc1Br)NC(=O)C(C#N)C(C)(C)C (single isomer, unassigned) [166a]",Test C disease control rating,Pyricularia oryzae; [2],99%
same,Test E disease control rating,Botrytis cinerea; [2],58%
same,Test B disease control rating,Puccinia recondita; [2],0%
same,Test D disease control rating,Phytophthora infestans; [2],76%
same,Test A disease control rating,[1]; [3],0%
CCC1(C(=O)NC(C)COc2ccccc2CF)C(C)C1(Cl)Cl (mixture of isomers) [compound 92],Test C disease control rating,Pyricularia oryzae; tested at 40 ppm,0%
same,Test E disease control rating,Botrytis cinerea; tested at 40 ppm,0%
same,Test B disease control rating,Puccinia recondita; tested at 40 ppm,0%
same,Test D disease control rating,Phytophthora infestans; tested at 40 ppm,0%
same,Test A disease control rating,[1]; tested at 40 ppm,60%
"C[C@H](COc1cc(Cl)cc(Cl)c1Cl)NC(=O)C(C#N)C(C)(C)C (single isomer, unassigned) [170b]",Test C disease control rating,Pyricularia oryzae; [2],53%
same,Test E disease control rating,Botrytis cinerea; [2],95%
same,Test B disease control rating,Puccinia recondita; [2],68%
same,Test D disease control rating,Phytophthora infestans; [2],23%
same,Test A disease control rating,[1]; [3],61%
CCC1(C(=O)NC(C)COc2cc(F)cc(F)c2)C(C)C1(Cl)Cl (stereo not drawn) [compound 234],"Test C disease control rating (100 = 100% disease control, 0 = no disease control)",Pyricularia oryzae,100%
same,"Test E disease control rating (100 = 100% disease control, 0 = no disease control)",Botrytis cinerea,0%
same,"Test B disease control rating (100 = 100% disease control, 0 = no disease control)",Puccinia recondita,0%
same,"Test D disease control rating (100 = 100% disease control, 0 = no disease control)",Phytophthora infestans,0%
same,"Test A disease control rating (100 = 100% disease control, 0 = no disease control)",[1],0%
CCC1(C(=O)NC(C)COc2c(Cl)cccc2C#N)C(C)C1(Cl)Cl (mixture of isomers) [compound 260],"Test C disease control rating (100 = 100% disease control, 0 = no disease control)",Pyricularia oryzae,74%
same,"Test E disease control rating (100 = 100% disease control, 0 = no disease control)",Botrytis cinerea,83%
same,"Test B disease control rating (100 = 100% disease control, 0 = no disease control)",Puccinia recondita,0%
same,"Test D disease control rating (100 = 100% disease control, 0 = no disease control)",Phytophthora infestans,24%
same,"Test A disease control rating (100 = 100% disease control, 0 = no disease control)",[1],0%
CCC1(C(=O)NC(C)COc2cccc(F)c2)C(C)C1(Cl)Cl (mixture of isomers) [79a],Test C disease control rating,Pyricularia oryzae; tested at 40 ppm,53%
same,Test E disease control rating,Botrytis cinerea; tested at 40 ppm,0%
same,Test B disease control rating,Puccinia recondita; tested at 40 ppm,0%
same,Test D disease control rating,Phytophthora infestans; tested at 40 ppm,0%
same,Test A disease control rating,[1]; tested at 40 ppm,0%
CC(COc1c(F)cccc1C#N)NC(=O)C(C#N)C(C)C(C)(C)C (mixture of isomers) [compound 67],Test C disease control rating,Pyricularia oryzae; [2],0%
same,Test E disease control rating,Botrytis cinerea; [2],0%
same,Test B disease control rating,Puccinia recondita; [2],0%
same,Test D disease control rating,Phytophthora infestans; [2],92%
same,Test A disease control rating,[1]; [3],0%
"C[C@H](COc1cccc(F)c1)NC(=O)C(C#N)C(C)(C)C (single isomer, unassigned) [3e]",Test C disease control rating,Pyricularia oryzae; [2],100%
same,Test E disease control rating,Botrytis cinerea; [2],0%
same,Test B disease control rating,Puccinia recondita; [2],0%
same,Test D disease control rating,Phytophthora infestans; [2],68%
same,Test A disease control rating,[1]; [3],86%
"C[C@H](COc1cc(Cl)c(Cl)cc1Cl)NC(=O)C(C#N)C(C)(C)C (single isomer, unassigned) [174a]",Test C disease control rating,Pyricularia oryzae; [2],31%
same,Test E disease control rating,Botrytis cinerea; [2],0%
same,Test B disease control rating,Puccinia recondita; [2],0%
same,Test D disease control rating,Phytophthora infestans; [2],54%
same,Test A disease control rating,[1]; [3],0%
CC(COc1ccc(C(C)(C)C)cc1)NC(=O)C(C#N)C(C)(C)C (mixture of isomers) [compound 24],Test C disease control rating,Pyricularia oryzae; [2],53%
same,Test E disease control rating,Botrytis cinerea; [2],94%
same,Test B disease control rating,Puccinia recondita; [2],0%
same,Test D disease control rating,Phytophthora infestans; [2],66%
same,Test A disease control rating,[1]; [3],62%
CCC1(C(=O)NC(C)C=Cc2cc(F)ccc2F)C(C)C1(Cl)Cl (stereo not drawn) [267b],"Test C disease control rating (100 = 100% disease control, 0 = no disease control)",Pyricularia oryzae,100%
same,"Test E disease control rating (100 = 100% disease control, 0 = no disease control)",Botrytis cinerea,55%
same,"Test B disease control rating (100 = 100% disease control, 0 = no disease control)",Puccinia recondita,0%
same,"Test D disease control rating (100 = 100% disease control, 0 = no disease control)",Phytophthora infestans,0%
same,"Test A disease control rating (100 = 100% disease control, 0 = no disease control)",[1],92%
CCC1(C(=O)NC(C)COc2ccc(F)cc2)C(C)C1(Cl)Cl (mixture of isomers) [80b],Test C disease control rating,Pyricularia oryzae; tested at 40 ppm,97%
same,Test E disease control rating,Botrytis cinerea; tested at 40 ppm,0%
same,Test B disease control rating,Puccinia recondita; tested at 40 ppm,0%
same,Test D disease control rating,Phytophthora infestans; tested at 40 ppm,0%
same,Test A disease control rating,[1]; tested at 40 ppm,83%
CCC1(C(=O)NC(C)COc2ccccc2C(F)(F)F)C(C)C1(Cl)Cl (mixture of isomers) [94a],Test C disease control rating,Pyricularia oryzae; [2],0%
same,Test E disease control rating,Botrytis cinerea; [2],0%
same,Test B disease control rating,Puccinia recondita; [2],0%
same,Test D disease control rating,Phytophthora infestans; [2],0%
same,Test A disease control rating,[1]; [3],0%
CCC1(C(=O)NC(C)COc2ccc(Cl)cc2Cl)C(C)C1(Cl)Cl (stereo not drawn) [compound 112],Test C disease control rating,Pyricularia oryzae; tested at 40 ppm,0%
same,Test E disease control rating,Botrytis cinerea; tested at 40 ppm,0%
same,Test B disease control rating,Puccinia recondita; tested at 40 ppm,0%
same,Test D disease control rating,Phytophthora infestans; tested at 40 ppm,0%
same,Test A disease control rating,[1]; tested at 40 ppm,71%
"C[C@H](COc1ccccc1F)NC(=O)C(C#N)C(C)(C)C (single isomer, unassigned) [2c]",Test C disease control rating,Pyricularia oryzae; [2],100%
same,Test E disease control rating,Botrytis cinerea; [2],0%
same,Test B disease control rating,Puccinia recondita; [2],0%
same,Test D disease control rating,Phytophthora infestans; [2],24%
same,Test A disease control rating,[1]; [3],86%
CCC1(C(=O)NCC=Cc2cccc(Cl)c2)C(C)C1(Cl)Cl (stereo not drawn) [compound 159],Test C disease control rating,Pyricularia oryzae; [2],0%
same,Test E disease control rating,Botrytis cinerea; [2],47%
same,Test B disease control rating,Puccinia recondita; [2],0%
same,Test D disease control rating,Phytophthora infestans; [2],0%
same,Test A disease control rating,[1]; [3],0%
C=CC(C)(CF)C(C#N)C(=O)NC(C)COc1cc(Cl)ccc1Cl (mixture of isomers) [compound 219],"Test C disease control rating (100 = 100% disease control, 0 = no disease control)",Pyricularia oryzae,99%
same,"Test E disease control rating (100 = 100% disease control, 0 = no disease control)",Botrytis cinerea,0%
same,"Test B disease control rating (100 = 100% disease control, 0 = no disease control)",Puccinia recondita,86%
same,"Test D disease control rating (100 = 100% disease control, 0 = no disease control)",Phytophthora infestans,96%
same,"Test A disease control rating (100 = 100% disease control, 0 = no disease control)",[1],86%
C=CCc1cccc(C)c1OCC(C)NC(=O)C1(CC)C(C)C1(Cl)Cl (stereo not drawn) [compound 119],Test C disease control rating,Pyricularia oryzae; [2],32%
same,Test E disease control rating,Botrytis cinerea; [2],0%
same,Test B disease control rating,Puccinia recondita; [2],0%
same,Test D disease control rating,Phytophthora infestans; [2],0%
same,Test A disease control rating,[1]; [3],31%
CCC1(C(=O)NC(C)COc2cc(F)c(F)cc2F)C(C)C1(Cl)Cl (stereo not drawn) [compound 236],"Test C disease control rating (100 = 100% disease control, 0 = no disease control)",Pyricularia oryzae,97%
same,"Test E disease control rating (100 = 100% disease control, 0 = no disease control)",Botrytis cinerea,0%
same,"Test B disease control rating (100 = 100% disease control, 0 = no disease control)",Puccinia recondita,0%
same,"Test D disease control rating (100 = 100% disease control, 0 = no disease control)",Phytophthora infestans,0%
same,"Test A disease control rating (100 = 100% disease control, 0 = no disease control)",[1],77%
CC(COc1ccccc1C(C)C)NC(=O)C(C#N)C(C)(C)C (mixture of isomers) [compound 22],Test C disease control rating,Pyricularia oryzae; [2],100%
same,Test E disease control rating,Botrytis cinerea; [2],0%
same,Test B disease control rating,Puccinia recondita; [2],0%
same,Test D disease control rating,Phytophthora infestans; [2],0%
same,Test A disease control rating,[1]; [3],0%
